Laboratory results as given in patent US20210228748A1, “IN VIVO STABLE HG-197(M) COMPOUNDS, METHOD FOR THE PRODUCTION THEREOF AND USE THEREOF IN NUCLEAR MEDICAL DIAGNOSTICS AND ENDORADIONUCLIDE THERAPY (THERANOSTICS)” (HELMHOLTZ-ZENTRUM DRESDEN - […].V., priority 2017, published 2021).
Entries after “also recorded” stand apart in the source; their conditions may differ.

Tests used:
[1] = Stability test with excess of sulfur-containing competitors (radio-TLC); type: physicochemical
Experimental: (§1) After pH-adjustment of the hydrochloric acid solution of [197(m)Hg]HgCl2(aq) (˜55 MBq, 20 μl, pH 1), by addition of 0.5 M HEPES buffer (pH 8, 200 μl), EtOH (200 μl), 6 M NaOH(aq) (11 μl), and 1 M NaOH(aq) (2 μl), a 1 mg/ml acetonitrile solution of 2 (12 μl, 14 nmol) was added. This solution (pH 6, 445 μl) was mixed at 50° C. for 1 h. The radiochemical yield of 3* was determined by radio-TLC (iTLC ACN+0.1% TFA, RP-18 TLC 9:1 ACN: H2O+0.1% TFA) as >95%. Purification and solvent change were carried out with a C8 cartridge (500 mg). After washing with water the major product was eluted with 7:3 EtOH:H2O from the cartridge. The last 2 fractions contained ˜16 MBq and ˜10 MBq respectively. The ˜16 MBq fraction had 3×200 μl extracted (˜4 MBq each). These fractions then had 1 competitor added each (1 mg/ml, 10 μl): tris(2-mercaptoethyl)ammonium oxalate, glutathione and Na2S. The mixtures were left at rt and checked by radio-TLC after 5 min, 1 h and 2 d, the only degradation observed was ˜4% after 2 d in the Na2S mixture. The ˜10 MBq fraction was divided into 2×500 μl. The first lot was used to test the stability of 3* in the highly aqueous solvent system necessary for biodistribution studies, this was diluted from 70% EtOH(aq) to ˜10% EtOH(aq) with brine (3.5 ml). […]

[2] = Biodistribution in healthy male Wistar rats; type: in vivo
From the text: FIG. 5 show biodistribution of compound 3* in healthy male Wistar rats (^197(m)HgCl2: n=4, 3*: n=8; ˜300 kBq per animal; all other organs measured well below 1% ID/g).

Volatility test = type: physicochemical; conditions: 70% EtOH(aq), 50° C., dry nitrogen stream 1 h
Experimental: as §1

[3] = Stability in highly aqueous solvent system for biodistribution studies; type: physicochemical; conditions: diluted from 70% EtOH(aq) to ~10% EtOH(aq) with brine
Experimental: as §1

[4] = Human serum stability assay (SDS-PAGE autoradiograph); type: in vitro ADME; conditions: incubated with human serum 1 h at 37° C., pH 7.4, non-reducing SDS-PAGE
Experimental: FIGS. 4A and 4B show stability testing for compound 3*, namely the analysis of ^197(m)Hg-incorporation into human serum proteins by SDS-PAGE (20% SDS-polyacrylamide gel autoradiograph (FIG. 4A), showing 197(m)Hg-labeled bands, and Coomassie staining (FIG. 4B), showing bands of human serum proteins; Lane 1: ^197(m)>Hg-radiolabeled bispidine 3*. Lane 2: ^197(m)Hg-radiolabeled EDTA. M: molecular-weight size marker).
Human serum “off the clot” (5 ml) stored at −20° C. was slowly thawed on ice and filtered using syringe filters with a pore size of 0.2 μm. Two aliquots of filtered serum (2×220 μl) were mixed with 1 M HEPES/NaOH buffer (pH 7.4, 2×45 μl). Separately, 2×200 μl solution (1:1 EtOH:H2O, pH 6) of 3* (˜4 MBq) and 197(m)HgCl2/EDTA (˜5 MBq, 10 μg EDTA) had 1 M HEPES/NaOH buffer (pH 8.0, 2×20 μl) added to increase solution pH to 7.4. Then 135 μl of each 197(m)Hg-radiolabeled sample was added to one of the previously prepared serum/buffer solutions (265 μl) and incubated for 1 h at 37° C. 50 μl aliquots were then taken and mixed with 50 μl of 2× Laemmli sample buffer (Bio-Rad Laboratories), N.B. no reducing agent was added and the samples were not heated. The mixtures were then analyzed by non-reducing SDS-PAGE with acrylamide concentrations of 5% in the stacking gel and 20% in the resolving gel. 2 μl of each sample were loaded into each gel well. […]

CCCC[C@]1(O)C2(c3ccccc3)CN3Cc4cccc[c]4[Hg][c]4ccccc4CN(C2)C[C@]1(c1ccccc1)C3 [3*, 9-butyl-8,10-diphenyl-6,10:8,12-dimethanodibenzo[c,f][1,9]diaza[5]mercuracyclotetradecan-9-ol]
degradation observed by radio-TLC ([1]; Na2S competitor (1 mg/ml, 10 μl), rt, after 2 d): ~4% | chemical stability against sulfur-containing competitors ([1]; excess of glutathione, tris(2-mercaptoethyl)ammonium oxalate and sodium sulfide): high chemical stability | biodistribution, all other organs (not shown in FIG. 5) ([2]; healthy male Wistar rats, ~300 kBq per animal): below 1 % ID/g | demetallation and retention in the kidneys ([2]; healthy rats, biodistribution and SPECT): no indication of demetallation and retention in the kidneys | organ / renal clearance ([2]; healthy rats, normal micturition during a 24 h period): good organ clearance; also recorded: good renal clearance | loss of activity by evaporation (volatility) (Volatility test): no observable loss by evaporation | stability of the solution by radio-TLC [3]: good stability | 197(m)Hg release (demetallation) and binding to serum proteins [4]: there isn't any observable protein interaction; also recorded: neither 197(m)Hg release (demetallation) nor binding to serum proteins is detectable
